# What was measured:
# [1] = molecular target: Peptidyl-prolyl cis-trans isomerase NIMA-interacting 1 (Homo sapiens, UniProt Q13526); assay: Inhibition of recombinant human Pin1 (Met1 to Glu163 residues) expressed in Escherichia coli using Suc-Ala-Glu-cis-Pro-Phe-4-nitroanilide as substrate preincubated for 30 mins followed by substrate addition and measured for 90 secs by protease-coupled assay
# PC-3 [2] = assay: Cell cycle arrest in human PC3 cells assessed as accumulation at G0/G1-phase at 2.5 uM measured after 24 hrs by propidium iodide staining based flow cytometry (reference value: 54.26%); assay type: functional
# PC-3 [3] = assay: Cell cycle arrest in human PC3 cells assessed as accumulation at subG1-phase at 5 uM measured after 24 hrs by propidium iodide staining based flow cytometry (reference value: 0.65%); assay type: functional
# PC-3 [4] = assay: Cell cycle arrest in human PC3 cells assessed as accumulation at G2/M-phase at 2.5 uM measured after 24 hrs by propidium iodide staining based flow cytometry (reference value: 28.31%); assay type: functional
# PC-3 [5] = assay: Cell cycle arrest in human PC3 cells assessed as accumulation at G2/M-phase at 10 uM measured after 24 hrs by propidium iodide staining based flow cytometry (reference value: 28.31%); assay type: functional
# PC-3 [6] = assay: Cell cycle arrest in human PC3 cells assessed as accumulation at G0/G1-phase at 5 uM measured after 24 hrs by propidium iodide staining based flow cytometry (reference value: 54.26%); assay type: functional
# PC-3 [7] = assay: Cell cycle arrest in human PC3 cells assessed as accumulation at subG1-phase at 2.5 uM measured after 24 hrs by propidium iodide staining based flow cytometry (reference value: 0.65%); assay type: functional
# PC-3 [8] = assay: Cell cycle arrest in human PC3 cells assessed as accumulation at subG1-phase at 10 uM measured after 24 hrs by propidium iodide staining based flow cytometry (reference value: 0.65%); assay type: functional
# PC-3 [9] = assay: Cell cycle arrest in human PC3 cells assessed as accumulation at G0/G1-phase at 10 uM measured after 24 hrs by propidium iodide staining based flow cytometry (reference value: 54.26%); assay type: functional
# PC-3 [10] = assay: Antiproliferative activity against human PC3 cells measured after 96 hrs by MTT assay; assay type: functional; details: PC-3, 96 h
# PC-3 [11] = assay: Cell cycle arrest in human PC3 cells assessed as increase in accumulation at G0/G1-phase measured after 24 hrs by propidium iodide staining based flow cytometry; assay type: functional
# PC-3 [12] = assay: Cell cycle arrest in human PC3 cells assessed as accumulation at G2/M-phase at 5 uM measured after 24 hrs by propidium iodide staining based flow cytometry (reference value: 28.31%); assay type: functional
# Peptidyl-prolyl cis-trans isomerase NIMA-interacting 1, sequence (Q13526 whole entry): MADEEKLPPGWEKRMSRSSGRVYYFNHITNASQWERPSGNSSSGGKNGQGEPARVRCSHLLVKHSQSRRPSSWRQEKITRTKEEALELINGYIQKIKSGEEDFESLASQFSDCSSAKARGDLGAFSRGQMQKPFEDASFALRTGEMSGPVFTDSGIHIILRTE
SMILES,IC50 [1],other results
CC(C)(C)c1ccc(OCCCn2c(-c3ccc(C(=O)O)cc3)nc3ccccc32)cc1,1.89 µM,
O=C(O)c1ccc(-c2nc3ccccc3n2CCC(=O)N(c2ccccc2)c2ccc3ccccc3c2)cc1,1.53 µM,
O=C(O)c1ccc(-c2nc3ccccc3n2CCCOc2cccc3ccccc23)cc1,0.33 µM,
Cc1cc(OC(=O)CCn2c(-c3ccc(C(=O)O)cc3)nc3ccccc32)cc(C)c1Cl,0.72 µM,
Cc1cccc(NC(=O)CCn2c(CCC(=O)O)nc3ccccc32)c1,7.56 µM,
CC(C)(C)c1ccc(OC(=O)CCn2c(-c3ccc(C(=O)O)cc3)nc3ccccc32)cc1,13.9 µM,
Cc1ccccc1NC(=O)CCn1c(CCC(=O)O)nc2ccccc21,9.81 µM,
O=C(O)c1ccc(-c2nc3ccccc3n2CCC(=O)N(Cc2ccccc2)Cc2ccccc2)cc1,5.4 µM,
O=C(CCn1c(-c2ccc(C(=O)O)cc2)nc2ccccc21)Oc1ccc(Oc2ccccc2)cc1,1.02 µM,
Cc1cc(OCCCn2c(-c3ccc(C(=O)O)cc3)nc3ccccc32)cc(C)c1Cl,0.47 µM,
O=C(NS(=O)(=O)C(F)(F)F)c1ccc(-c2nc3ccccc3n2CCCOc2cccc3ccccc23)cc1,2.26 µM,
CS(=O)(=O)NC(=O)c1ccc(-c2nc3ccccc3n2CCCOc2cccc3ccccc23)cc1,7.83 µM,
O=C(O)c1ccc(-c2nc3ccccc3n2CCCOc2ccc(Oc3ccccc3)cc2)cc1,2.2 µM,
O=C(NS(=O)(=O)c1ccccc1)c1ccc(-c2nc3ccccc3n2CCCOc2cccc3ccccc23)cc1,1 µM,Activity (PC-3 [2]): 58.33%; Activity (PC-3 [3]): 0.49%; Activity (PC-3 [4]): 29.01%; Activity (PC-3 [5]): 27.2%; Activity (PC-3 [6]): 62.46%; Activity (PC-3 [7]): 0.52%; Activity (PC-3 [8]): 0.37%; Activity (PC-3 [9]): 64.24%; GI50 (PC-3 [10]): 9 µM; Activity (PC-3 [11]): Dose-dependent effect; Activity (PC-3 [12]): 27.86%
O=C(O)CCc1nc2ccccc2n1CCC(=O)Nc1ccccc1,19.7 µM,

# The next lines start with results.
IC50 [1],SMILES,other results
3.57 µM,COc1cc(NC(=O)CCn2c(-c3ccc(C(=O)O)cc3)nc3ccccc32)cc(OC)c1,
11.3 µM,O=C(CCn1c(-c2ccc(C(=O)O)cc2)nc2ccccc21)Nc1cccc(C(F)(F)F)c1,
1.87 µM,O=C(CCn1c(-c2ccc(C(=O)O)cc2)nc2ccccc21)Oc1cccc2ccccc12,
2.89 µM,O=C(CCn1c(-c2ccc(C(=O)O)cc2)nc2ccccc21)Nc1cc(Cl)cc(Cl)c1,
1.1 µM,Cc1cccc(NC(=O)CCn2c(-c3ccc(C(=O)O)cc3)nc3ccccc32)c1,
7.27 µM,Cc1ccccc1NC(=O)CCn1c(-c2ccc(C(=O)O)cc2)nc2ccccc21,
18.7 µM,COc1cccc(NC(=O)CCn2c(-c3ccc(C(=O)O)cc3)nc3ccccc32)c1,
13.6 µM,O=C(CCn1c(-c2ccc(C(=O)O)cc2)nc2ccccc21)Nc1cccc([N+](=O)[O-])c1,
